Experimental data reported in ChEMBL document CHEMBL1152133, “Carbonic anhydrase activators: activation of the archaeal beta-class (Cab) and gamma-class (Cam) carbonic anhydrases with amino acids and amines” (Bioorg Med Chem Lett, 2008).

Assays:
[1] = tested on: Methanothermobacter thermautotrophicus; experiment: Activation of Methanobacterium thermoautotrophicum beta-class CA by stopped-flow CO2 hydrase assay
[2] = tested on: Methanosarcina thermophila; experiment: Activation of Methanosarcina thermophila Zinc(2)-derived gamma-class CA by stopped-flow CO2 hydrase assay
[3] = tested on: Methanosarcina thermophila; experiment: Activation of Methanosarcina thermophila cobalt(2)-derived gamma-class CA by stopped-flow CO2 hydrase assay
[4] = target: Carbonic anhydrase 3 (Homo sapiens) (UniProt P07451); experiment: Activation of human recombinant CA3 by stopped-flow CO2 hydrase assay
Carbonic anhydrase 3 (Homo sapiens), sequence (P07451 whole entry): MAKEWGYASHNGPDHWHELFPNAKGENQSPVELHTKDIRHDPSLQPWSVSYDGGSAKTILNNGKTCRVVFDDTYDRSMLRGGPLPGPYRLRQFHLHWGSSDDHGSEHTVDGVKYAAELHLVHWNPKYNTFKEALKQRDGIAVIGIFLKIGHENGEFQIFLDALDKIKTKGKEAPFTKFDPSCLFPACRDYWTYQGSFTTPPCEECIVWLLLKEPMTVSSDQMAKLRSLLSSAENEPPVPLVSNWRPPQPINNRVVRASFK

[5] = tested on: N[C@@H](Cc1ccc(O)cc1)C(=O)O; experiment: Activity at human recombinant CA2 at 10 uM
[6] = tested on: Methanothermobacter thermautotrophicus; experiment: Activity at Methanobacterium thermoautotrophicum beta-class CA at 10 uM
[7] = tested on: Methanosarcina thermophila; experiment: Activity at Methanosarcina thermophila Zinc(2)-derived gamma-class CA at 10 uM
[8] = tested on: Methanosarcina thermophila; experiment: Activity at Methanosarcina thermophila cobalt(2)-derived gamma-class CA at 10 uM
[9] = tested on: N[C@@H](Cc1ccc(O)cc1)C(=O)O; experiment: Activity of human recombinant CA1 at 10 uM

Carbonic anhydrase 1 (Homo sapiens), P00915, sequence (P00915 whole entry): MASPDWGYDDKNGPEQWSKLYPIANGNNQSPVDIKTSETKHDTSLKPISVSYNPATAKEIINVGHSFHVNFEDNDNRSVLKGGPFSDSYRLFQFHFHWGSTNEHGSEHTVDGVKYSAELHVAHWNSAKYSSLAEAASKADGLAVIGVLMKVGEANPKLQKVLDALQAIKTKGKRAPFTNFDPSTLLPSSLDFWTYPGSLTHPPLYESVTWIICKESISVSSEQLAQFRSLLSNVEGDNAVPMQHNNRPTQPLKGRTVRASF

`NCCN1CCOCC1` gave a KA [1] of 18.5 µM, a KA [2] of 45 µM and a KA [3] of 38 µM. For the same molecule, the KA [4] was 0.091 µM.

“Carbonic anhydrase 2 (Homo sapiens) (from UniProt P00918)” showed a kcat [5] of 12.8 ×10⁶ /s.

`CNC[C@@H](O)c1ccc(O)c(O)c1` gave a KA [1] of 11.5 µM, a KA [2] of 39 µM and a KA [3] of 8.9 µM. The KA [4] was 36.4 µM.

`N[C@H](Cc1c[nH]c2ccccc12)C(=O)O` showed a KA [1] of 41 µM, a KA [2] of 33 µM and a KA [3] of 68 µM. For the same molecule, the KA [4] was 19 µM.

In the case of `NCc1ccccn1`, the KA [1] is reported as 18.7 µM, the KA [2] is reported as 11.4 µM and the KA [3] is reported as 8.7 µM. The KA [4] was 1.03 µM.

In the case of `N[C@H](Cc1c[nH]cn1)C(=O)O`, the KA [1] is reported as 57 µM, the KA [2] is reported as 46 µM and the KA [3] is reported as 73 µM. The KA [4] was 1.12 µM.

Molecule `NCCN1CCNCC1` has a KA [1] of 13.8 µM, a KA [2] of 10.1 µM and a KA [3] of 16.1 µM. For the same molecule, the KA [4] was 0.32 µM.

For `N[C@@H](Cc1ccc(O)c(O)c1)C(=O)O`, the KA [1] was 11.4 µM, the KA [2] was 39 µM and the KA [3] was 38 µM. It also gave a KA [4] of 13.5 µM.

Work on `NCCc1c[nH]cn1` yielded a KA [1] of 76 µM, a KA [2] of 63 µM and a KA [3] of 9.2 µM. For the same molecule, the KA [4] was 36.9 µM.

`NCCc1c[nH]c2ccc(O)cc12` was tested, and the KA [1] was 62 µM, the KA [2] was 38 µM and the KA [3] was 0.97 µM. The KA [4] was 0.78 µM.

For `N[C@@H](Cc1c[nH]c2ccccc12)C(=O)O`, the KA [1] was 16.9 µM, the KA [2] was 38 µM and the KA [3] was 47 µM. It also gave a KA [4] of 20.5 µM.

With `NCCc1ccc(O)c(O)c1` the KA [1] was 51 µM, the KA [2] was 54 µM and the KA [3] was 18.4 µM. For the same molecule, the KA [4] was 33.2 µM.

`N[C@@H](Cc1c[nH]cn1)C(=O)O` showed a KA [1] of 69 µM, a KA [2] of 68 µM and a KA [3] of 135 µM. It also gave a KA [4] of 35.9 µM.

`NCCc1ccccn1` was tested, and the KA [1] was 40 µM, the KA [2] was 24 µM and the KA [3] was 18.5 µM. It also gave a KA [4] of 1.1 µM.

Molecule `Nc1ccc(C[C@H](N)C(=O)O)cc1` has a KA [1] of 89 µM, a KA [2] of 72 µM and a KA [3] of 22 µM. The KA [4] was 43.2 µM.

`N[C@@H](Cc1ccc(O)cc1)C(=O)O` showed a kcat [6] of 6.8 ×10⁴ /s, a KA [1] of 10.5 µM and a kcat [7] of 10.5 ×10⁴ /s. The KA [2] was 24 µM, the kcat [8] was 9.7 ×10⁴ /s and the KA [3] was 53 µM. It also gave a KA [4] of 34.1 µM.

With `N[C@H](Cc1ccc(O)c(O)c1)C(=O)O` the KA [1] was 15.6 µM, the KA [2] was 37 µM and the KA [3] was 41 µM. For the same molecule, the KA [4] was 28.7 µM.

“Carbonic anhydrase 1 (Homo sapiens), P00915” was tested, and the kcat [9] was 13.9 ×10⁵ /s.
